Tested on: NK92 cells
Experiment: Dependence of Aleurites fordii extract-induced IFN-γ production on NF-κB/PKC signaling
Format: cell-based, human
Settings: NK92 cells treated with inhibitor along with Aleurites fordii extract, FIG. 9

## CC(=O)c1c(O)c(C)c(O)c(Cc2c(O)c3c(c(C(=O)/C=C/c4ccccc4)c2O)OC(C)(C)C=C3)c1O [rotterin]
  induction of IFN-γ production by the Aleurites fordii extract: reduced

From patent publication US9375456B2, “Antiviral composition containing an Aleurites fordii or Daphne kiusiana extract or a fraction thereof as an active ingredient” (priority 2009, dated 2016)
